According to the supplement of paper PMC9663587:

Key:
[1] = compound: CC(=O)O[C@H]1C(=O)[C@@]2(C)[C@H]([C@H](OC(=O)c3ccccc3)[C@]3(O)C[C@H](OC(=O)[C@H](O)[C@@H](NC(=O)c4ccccc4)c4ccccc4)C(C)=C1C3(C)C)[C@]1(OC(C)=O)CO[C@@H]1C[C@@H]2O [Paclitaxel]
[2] = compound: T1, CC(=O)c1c(C)c2cnc(Nc3ccc(N4CCN(CCOCCOCCOCCNC(=O)COc5cccc6c5C(=O)N(C5CCC(=O)NC5=O)C6=O)CC4)cn3)nc2n(C2CCCC2)c1=O [BSJ-03-123]
[3] = compound: CC(C)n1nc(-c2ccc3oc(N)nc3c2)c2c(N)ncnc21 [INK128/MLN0128]
[4] = compound: CCN1CCN(Cc2ccc(Nc3ncc(F)c(-c4cc(F)c5nc(C)n(C(C)C)c5c4)n3)nc2)CC1
[5] = compound: T2, CCOc1cc2ncc(C#N)c(Nc3ccc(OCc4ccccn4)c(Cl)c3)c2cc1NC(=O)/C=C/CN(C)C [Neratinib/HKI272]
[6] = compound: CC[C@@H]1C(=O)N(C)c2cnc(Nc3ccc(C(=O)N[C@H]4CC[C@H](N5CCN(CC6CC6)CC5)CC4)cc3OC)nc2N1C(C)C [Volasertib/BI6727]
[7] = compound: T3, CN(C)C(=O)c1cc2cnc(Nc3ccc(N4CCNCC4)cn3)nc2n1C1CCCC1 [LEE011/Ribociclib]
[8] = compound: CN(C)C/C=C/C(=O)Nc1ccc(C(=O)N2CCC[C@@H](Nc3ncc(Cl)c(-c4c[nH]c5ccccc45)n3)C2)cc1 [THZ531]
[9] = compound: CN(C)CC[C@H](CSc1ccccc1)Nc1ccc(S(=O)(=O)NC(=O)c2ccc(N3CCN(Cc4ccccc4-c4ccc(Cl)cc4)CC3)cc2)cc1[N+](=O)[O-] [ABT-737]
[10] = compound: COc1ccc2c(c1)[C@]1(C[C@H]1c1ccc3c(/C=C/c4ccc(CN5C[C@@H](C)O[C@@H](C)C5)cc4)n[nH]c3c1)C(=O)N2
[11] = compound: CS(=O)(=O)N1CCN(Cc2cc3nc(-c4cccc5[nH]ncc45)nc(N4CCOCC4)c3s2)CC1 [Pictilisib/GDC0941]
[12] = compound: Cc1cc(Nc2ncc(Cl)c(Nc3ccccc3S(=O)(=O)C(C)C)n2)c(OC(C)C)cc1C1CCNCC1 [Ceritinib/LDK378]
[13] = compound: Cc1nc(-c2cn3c(n2)-c2ccc(-c4cnn(C(C)(C)C(N)=O)c4)cc2OCC3)n(C(C)C)n1 [Taselisib/GDC0032]
[14] = compound: O=C1NC(=O)[C@@H](c2cn3c4c(cccc24)CCC3)[C@@H]1c1c[nH]c2ccccc12 [Tivantinib/ARQ197]
[15] = compound: C=CC(=O)Nc1ccc(C(=O)Nc2[nH]nc3c2CN(C(=O)N[C@H](CN(C)C)c2ccccc2)C3(C)C)cc1 [YKL-5-124]; test: GR value, 72 h; higher = faster growth (1 = untreated, <0 = killing);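 further: breast cancer and non-malignant breast epithelial lines, nine half-log doses, viable cells counted by Hoechst and LIVE/DEAD dye imaging versus time-zero plates and DMSO controls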
[16] = compound: T1, BSJ-03-123; test: as above
[17] = compound: CCN1CCN(Cc2ccc(Nc3ncc(F)c(-c4cc(F)c5nc(C)n(C(C)C)c5c4)n3)nc2)CC1; test: as above
[18] = compound: T2, Neratinib/HKI272; test: as above
[19] = compound: CCc1cnn2c(NCc3ccc[n+]([O-])c3)cc(N3CCCC[C@H]3CCO)nc12; test: as above
[20] = compound: T3, LEE011/Ribociclib; test: as above
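Wherever GR50, 72 h is given: breast cancer and non-malignant breast epithelial cell lines, Deep Dye Drop or Dye Drop imaging, nine half-log doses, GR normalized to time-zero plates and DMSO-only controls.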

## MDAMB361
[1]
  GR50, 72 h: 0.00311 µM
[2]
  GR50, 72 h: 0.297 µM
[3]
  GR50, 72 h: 0.00362 µM
[4]
  GR50, 72 h: 0.00535 µM
[5]
  GR50, 72 h: 0.152 µM
[6]
  GR50, 72 h: 0.00352 µM
[7]
  GR50, 72 h: < 0.001 µM
[8]
  GR50, 72 h: 0.0273 µM
[9]
  GR50, 72 h: > 10 µM
[10]
  GR50, 72 h: 0.00573 µM
[11]
  GR50, 72 h: 0.0792 µM
[12]
  GR50, 72 h: 0.266 µM
[13]
  GR50, 72 h: 0.00177 µM
[14]
  GR50, 72 h: 0.342 µM
[15]; 0.001 µM
  GR value: 0.264 GR
[15]; 0.003162 µM
  GR value: 0.0247 GR
[15]; 0.01 µM
  GR value: -0.0567 GR
[15]; 0.03162 µM
  GR value: -0.0052 GR
[15]; 0.1 µM
  GR value: -0.0751 GR
[15]; 0.3162 µM
  GR value: -0.226 GR
[15]; 1 µM
  GR value: -0.188 GR
[15]; 3.162 µM
  GR value: -0.358 GR
[15]; 10 µM
  GR value: -0.881 GR
[16]; 0.001 µM
  GR value: 1.09 GR
[16]; 0.003162 µM
  GR value: 0.828 GR
[16]; 0.01 µM
  GR value: 0.927 GR
[16]; 0.03162 µM
  GR value: 0.784 GR
[16]; 0.1 µM
  GR value: 0.659 GR
[16]; 0.3162 µM
  GR value: 0.489 GR
[16]; 1 µM
  GR value: 0.32 GR
[16]; 3.162 µM
  GR value: 0.309 GR
[16]; 10 µM
  GR value: -0.0683 GR
[17]; 0.001 µM
  GR value: 0.882 GR
[17]; 0.003162 µM
  GR value: 0.631 GR
[17]; 0.01 µM
  GR value: 0.227 GR
[17]; 0.03162 µM
  GR value: 0.118 GR
[17]; 0.1 µM
  GR value: 0.119 GR
[17]; 0.3162 µM
  GR value: 0.121 GR
[17]; 1 µM
  GR value: 0.0452 GR
[17]; 3.162 µM
  GR value: -0.189 GR
[17]; 10 µM
  GR value: -0.341 GR
[18]; 0.0003162 µM
  GR value: 0.976 GR
[18]; 0.001 µM
  GR value: 0.848 GR
[18]; 0.003162 µM
  GR value: 0.824 GR
[18]; 0.01 µM
  GR value: 0.783 GR
[18]; 0.03162 µM
  GR value: 0.639 GR
[18]; 0.1 µM
  GR value: 0.514 GR
[18]; 0.3162 µM
  GR value: 0.486 GR
[18]; 1 µM
  GR value: 0.241 GR
[18]; 3.162 µM
  GR value: -0.516 GR
[19]; 0.0001 µM
  GR value: 1.02 GR
[19]; 0.0003162 µM
  GR value: 1.06 GR
[19]; 0.001 µM
  GR value: 0.999 GR
[19]; 0.003162 µM
  GR value: 1.09 GR
[19]; 0.01 µM
  GR value: 0.737 GR
[19]; 0.03162 µM
  GR value: -0.473 GR
[19]; 0.1 µM
  GR value: -0.284 GR
[19]; 0.3162 µM
  GR value: -0.28 GR
[19]; 1 µM
  GR value: -0.282 GR
[20]; 0.001 µM
  GR value: 0.49 GR
[20]; 0.003162 µM
  GR value: 0.396 GR
[20]; 0.01 µM
  GR value: 0.306 GR
[20]; 0.03162 µM
  GR value: 0.435 GR
[20]; 0.1 µM
  GR value: 0.287 GR
[20]; 0.3162 µM
  GR value: 0.0812 GR
[20]; 1 µM
  GR value: 0.176 GR
[20]; 3.162 µM
  GR value: -0.0126 GR
[20]; 10 µM
  GR value: 0.2 GR
